# How the values were obtained:
# [1] = tested on: CTG-0956; assay: Antitumor activity in ovarian cancer PDX model CTG-0956; format: in vivo, mouse; settings: CTG-0956 (carboplatin and paclitaxel-resistant); 67 days until end of test; doses as Table 3
# Experimental: (§1) Body weights (at start of dosing) were approximately 20 grams. […] Immunocompromised female mice were housed in HEPA ventilated cages (Innocage® IVC, Innovive USA) at 68-74° F. (20-23° C.) and 30-70% humidity under a 12-hour light/12-hour dark cycle. […] Animals with >10% body weight loss compared to day 0 received DietAel 76A (ClearH2O®, Portland, ME) for free. There were 3 mice in each group.
# (§2) Mice were implanted with tumor cells from the ChampionsTumorGraft® ovarian model, which was established from patients previously treated with platinum-based therapy. After tumors reached 1000-1500 mm^3, they were collected, and tumor fragments SCs were implanted in the left flank of female pre-study mice. Each study animal was implanted with a specific passage batch. Tumor volume was measured twice a week with calipers to monitor tumor growth, and tumor volume (TV) was calculated using the formula (0.52×[length×width^2]). […] After initiation of dosing, animals were weighed daily using a digital scale and TV was measured twice weekly. […]
# (§3) Inhibitory effect on tumor growth was determined by calculating TGI (100%×[1−(final MTV−initial MTV of the treatment group)/(final MTV−initial MTV of the control group)]). […]
# (§4) CR: no TV could be detected (<4×4 mm^2), in 2 consecutive measurements […]
# [2] = tested on: CTG-1624; assay: Antitumor activity in ovarian cancer PDX model CTG-1624; format: in vivo, mouse; settings: 38 days until end of test, doses as Table 3
# Experimental: as §1, §2, §3, §4
# [3] = tested on: CTG-1433; assay: Antitumor activity in ovarian cancer PDX model CTG-1433; format: in vivo, mouse; settings: CTG-1433 (carboplatin and paclitaxel-resistant); 49 days until end of test; doses as Table 3
# Experimental: as §1, §2, §3, §4
# [4] = tested on: CTG-0964; assay: Antitumor activity in ovarian cancer PDX model CTG-0964; format: in vivo, mouse; settings: CTG-0964 (carboplatin and paclitaxel-resistant); 35 days until end of test; doses as Table 3
# Experimental: as §1, §2, §3, §4
# [5] = tested on: CTG-1602; assay: Antitumor activity in ovarian cancer PDX model CTG-1602; format: in vivo, mouse; settings: 14 days until end of test, doses as Table 3
# Experimental: as §1, §2, §3, §4
# [6] = tested on: CTG-1166; assay: Antitumor activity in ChampionsTumorGraft PDX ovarian cancer model CTG-1166
# Experimental: as §1
# Mice were implanted with tumor cells from the ChampionsTumorGraft® ovarian model, which was established from patients previously treated with platinum-based therapy. After tumors reached 1000-1500 mm^3, they were collected, and tumor fragments SCs were implanted in the left flank of female pre-study mice. Each study animal was implanted with a specific passage batch. Tumor volume was measured twice a week with calipers to monitor tumor growth, and tumor volume (TV) was calculated using the formula (0.52×[length×width^2]). When TV reached approximately 250-350 mm^3 (average 300 mm^3), animals were matched to tumor size and assigned to the control or treatment groups (study mice) and dosing started on day 0. After initiation of dosing, animals were weighed daily using a digital scale and TV was measured twice weekly. The study was terminated when the mean tumor volume in the control group reached approximately 1500 mm^3 or until day 60. In some models, the study was extended beyond Day 60 and dosing was also extended to the end of the study. Individual animals could be removed from the study when tumor volume reaches approximately 1500 mm^3.
# Control 1: 0.5% Natrosol; control 2: 5% sterile glucose.
# The control group for oral administration was 0.5% Natrosol. The control group for intravenous administration was 5% sterile glucose.
# Carboplatin was a pre-formulated 10 mg/mL stock solution. PLD was a pre-formulated 2 mg/mL stock solution. Paclitaxel was a pre-formulated 6 mg/mL stock solution. These standard chemotherapeutic drugs were provided by Champions.
# Data for each group, including body weight for each animal and mean body weight, were recorded, and the percentage change in mean body weight (% vD0) for each group relative to Day 0 was recorded, and the % vD0 was plotted at the completion of the study.
# Animal deaths were recorded daily and determined as drug-related (D), technical (T), tumor-related (B), or unknown (U) based on weight loss and by visual inspection. […] The maximum mean % vD0 (body weight nadir) for each treatment group was reported at the end of the study.
# Inhibitory effect on tumor growth was determined by calculating TGI (100%×[1−(final MTV−initial MTV of the treatment group)/(final MTV−initial MTV of the control group)]). Treatment was started on day 0. Tumor volumes in the treatment group were compared with those in the control group on the day the study was completed.
# Other endpoints used to assess efficacy included number of CR, PR and TFS. PR and TFS were considered to exclude CR.
# PR: TV≤30% of TV on day 0, in 2 consecutive measurements
# CR: no TV could be detected (<4×4 mm^2), in 2 consecutive measurements
# TFS: CR that persisted until the study was completed
# Data were used for statistical analysis at the end of the study. Statistical comparisons of tumor volumes were performed using one-way analysis of variance followed by Newman-Keuls multiple comparison test to compare differences between all groups. Selected endpoints included as many groups as possible and as many animals per group as possible.
# Tumor volumes from animals removed early due to tumor volume ≥1500 mm^3 were carried forward for analysis, but not more than 4 consecutive measurement time points.
# [7] = tested on: CTG-0992; assay: Antitumor activity in ovarian cancer PDX model CTG-0992; format: in vivo, mouse; settings: CTG-0992 (carboplatin and paclitaxel-resistant); 60 days until end of test; doses as Table 3
# Experimental: as §1, §2, §3, §4
# [8] = tested on: CTG-1627; assay: Antitumor activity in ovarian cancer PDX model CTG-1627; format: in vivo, mouse; settings: 28 days until end of test, doses as Table 3
# Experimental: as §1, §2, §3, §4
# [9] = tested on: NCI-H520 cells; settings: NCI-H520 xenograft, day 22, combination of both
# Experimental: For tumor volume, absolute values were used.
# Appropriate statistical methods were used for evaluation.
# Mice were approximately 6 weeks old. There were 5 mice in each group.
# The cell concentration of the culture was maintained between 8×10^6 to 12×10^7 cells/tissue culture flask.
# Cisplatin was dissolved in 0.9% saline.
# Statistical evaluation was performed using the Student's t-test function in Microsoft Excel, utilizing a two-tailed distribution and a two-sample equal variance type.
# [10] = CTG-1166 PDX, Day 0-56, n=3 per group, doses as Table 4
# [11] = CTG-1166 PDX, day 17, BI 853520 50 mg/kg PO BID, PLD 3 mg/kg IV q7d, carboplatin 25 mg/kg IP q7dx3 + paclitaxel 20 mg/kg IV q7dx3
# [12] = BI 853520 50 mg/kg qd, cisplatin 5 mg/kg IP q7d
smiles,measurement,setting,value
"COc1cc(C(=O)NC2CCN(C)CC2)c(F)cc1Nc1ncc(C(F)(F)F)c(Oc2cccc3c2C(=O)N(C)C3)n1 [BI 853520, 2-fluoro-5-methoxy-4-[(4-(2-methyl-3-oxo-2,3-dihydro-1H-isoindole-4-oxy)-5-trifluoromethyl-pyrimidin-2-yl)amino]-N-(1-methyl-piperidin-4-yl)benzamide]",TGI (%),[1],77%
same,TGI (%),[2],22%
same,TGI (%),[3],61%
same,TGI (%),[4],66%
same,TGI (%),[5],−1%
same,#CR (complete responses),[6]; [10],0/0/0
same,#PR (partial responses),[6]; [10],0/0/0
same,#TFS (tumor-free survivors),[6]; [10],0/0/0
same,Body weight (day 17) % vD0,"[6]; CTG-1166 PDX, day 17, change in mean body weight relative to Day 0",4.0%
same,% TGI,[6]; [11],89%
same,Tumor volume (day 17) Mean ± SEM,[6]; [11],366 ± 78 mm^3
same,Dead Total,"[6]; CTG-1166 PDX, animal deaths, n=3 per group",0
same,Body weight nadir Day,"[6]; CTG-1166 PDX, day of body weight nadir",13
same,Antitumor activity (in words),"[6]; CTG-1166 PDX, doses as Table 4",significant inhibitory effect on tumor growth
same,Body weight (day 17) Mean ± SEM,"[6]; mouse, in vivo",26.7 ± 0.4 g
same,Body weight nadir % vD0(max),"[6]; mouse, in vivo, po, 50 mg/kg",−0.7%
same,TGI (%),[7],49%
same,TGI (%),[8],50%
same,Median tumor volume,"[9]; BI 853520 50 mg/kg qd by gavage, cisplatin 5 mg/kg IP once a week",352 mm^3
same,Median TGI,[9]; [12],54%
same,Tumor regression (animals with regression/animals in group),[9]; [12],0/7

# Reference: patent US12097200B2, “Combination of BI853520 with chemotherapeutic drugs” (INXMED (NANJING) CO., LTD., priority 2020, dated 2024)
